Literature values in US7279184B2, “Methods and compositions comprising Ilex” (HerbalScience, LLC, priority 2003, dated 2007).

Cn1cnc2c1c(=O)[nH]c(=O)n2C [Theobromine, 3,7-dimethyl-xanthine]
half-life after ingestion: approximately 6 hours
